Measurements published in patent US20100234464A1, “COMPOUNDS FOR THE TREATMENT OF METABOLIC DISORDERS” (WELLSTAT THERAPEUTICS CORPORATION, priority 2006, published 2010).

System: male db/db mice
Assay: Antidiabetic efficacy of oral compound in male db/db mice (nonfasting serum glucose and triglycerides after 14 days)
Type: in vivo
Conditions: for Serum triglycerides, Mean ± SEM / Serum glucose, Mean ± SD: 100 mg/kg/day oral gavage once daily for 2 weeks, nonfasting serum, N = 5 mice/group; for Serum triglycerides, Mean ± SEM: vehicle 220.8 ± 62.1; for Serum glucose, Mean ± SD: vehicle 735.0 ± 66.0; for Effect on nonfasting serum glucose relative to vehicle-treated mice (in words) / Effect on nonfasting serum triglycerides relative to vehicle-treated mice (in words): 100 mg/kg/day oral, 2 weeks
Text: Male db/db mice have a defect in the receptor for the appetite-regulating protein leptin and consequently develop hyperphagia, obesity, insulin resistance, hyperglycemia, and hypertriglyceridemia. Furthermore, male db/db mice undergo progressive islet failure, resulting in a transition from hyperinsulinemia to insulin deficiency.
Male db/db mice (10 weeks old) were divided into weight-matched groups of 5 mice each. Age-matched male C57BL/6 mice were used as lean control animals. Mice received once-daily oral (gavage) doses of the vehicle (1% hydroxypropylmethylcellulose in water), Compound BI, Compound CF, or Compound DN for two weeks. Treatment groups and drug doses were as follows. • 1. Vehicle • 2. Compound BI 100 mg/kg/day • 3. Compound CF 100 mg/kg/day • 4. Compound DN 100 mg/kg/day
Nonfasting blood samples were collected after 14 days of treatment for determination of serum glucose, triglycerides, and free fatty acids.

Row | SMILES | Serum triglycerides, Mean ± SEM [mg/dL] | Serum glucose, Mean ± SD [mg/dL] | Effect on nonfasting serum glucose relative to vehicle-treated mice (in words) | Effect on nonfasting serum triglycerides relative to vehicle-treated mice (in words)
1 | Cc1cccc(C)c1COc1cccc(C(=O)CCC(=O)O)c1 [Compound BI, 4-(3-(2,6-Dimethylbenzyloxy)phenyl)-4-oxobutyric acid] | 85.8 ± 13.0 | 257.0 ± 57.0 | significantly reduced | significantly reduced
2 | Cc1cccc(C)c1COc1cccc(CC(=O)O)c1 [Compound CF, 3-(2,6-Dimethylbenzyloxy)phenylacetic acid] | 90.5 ± 17.4 | 441.0 ± 162.0 | significantly reduced | significantly reduced
3 | O=C(O)Cc1cccc(OCc2ccc(C(F)(F)F)cc2C(F)(F)F)c1 [Compound DN, 3-(2,4-Bis(trifluoromethyl)benzyloxy)phenylacetic acid] | 157.2 ± 40.3 | 396.0 ± 84.0 | significantly reduced | significantly reduced
